Data reported in US12391674B2, “Heterocyclic compounds for the treatment of epilepsy” (OTSUKA PHARMACEUTICAL CO., LTD., priority 2018, dated 2025).
Read-outs that look alike come from different tables or passages of the source.

System: DBA/2 mice
Assay: Audiogenic seizure model
Type: in vivo
Conditions: Mus musculus, read-out: Seizure suppression
Procedure: The animal model used in this test is a phenotype model for partial seizure (including secondary generalized seizure) and generalized tonic-clonic seizure, and has high clinical predictability. This test was performed in accordance with the report of De Sarro et al (Br J Pharmacol. 1988 February; 93 (2): 247-56. Anticonvulsant effects of some calcium entry blockers in DBA/2 mice. De Sarro G B, Meldrum B S, Nistico G.).
In this test example, the example compounds shown in Tables 3-1 to 3-3 below were used as test compounds.
The test compounds were suspended in 5% gum arabic/distilled water (w/v), and administered by forced oral administration to male and female DBA/2 mice (Japan SLC, Inc., 3 weeks old, 8 per group) at a dose of 30 mg/kg. After one hour of the oral administration of the test compound, each mouse was placed in a transparent acrylic cylinder 30 cm high and 23 cm in diameter, and 30 seconds were allowed for habituation. Then, they were exposed to auditory stimulation (12.6 kHz, 100-110 dB) for 1 minute or until a tonic seizure occurred.
The seizure response was assessed using the following scale, 0: no seizure, 1: wild running, 2: clonic seizure, 3: tonic seizure and 4: respiratory arrest. The maximum response was recorded as the seizure severity score.
The seizure suppression rate for each compound administration group was calculated according to the following formula.
Here, a rate of seizure suppression of 90% or more was expressed as “A”, a rate of seizure suppression of 70% or more and less than 90% was expressed as “B”, and a rate of seizure suppression of 50% or more and less than 70% was expressed as “C”.

[1] = DBA/2 mice, oral, auditory stimulation 1 hour after administration
[2] = DBA/2 mice, oral, dose 30 mg/kg, auditory stimulation 1 hour after administration

SMILES	inhibition in vivo at 30 mg/kg [2]	also measured
c1ccc(Oc2ncc(-c3ccncc3)cn2)cc1 [Example 9]		inhibition in vivo at 5 mg/kg [1]: > 90%
COc1ccc(-c2cnc(Oc3cccc(C(F)(F)F)c3)nc2)nn1 [Example 12]		inhibition in vivo at 3 mg/kg [1]: > 90%
Cc1ccc(-c2cnc(Oc3cccc(C(F)(F)F)c3)nc2)nn1 [Example 13]		inhibition in vivo at 3 mg/kg [1]: > 90%
FC(F)(F)c1cccc(Oc2ncc(-c3cccnc3)cn2)c1 [Example 14]	> 90%	
Cc1ccc(-c2cnc(Oc3cccc(C(F)(F)F)c3)nc2)cn1 [Example 15]	> 90%	
COc1ccc(-c2cnc(Oc3cccc(C(F)(F)F)c3)nc2)cn1 [Example 16]	> 90%	
Cc1ccc(-c2cnc(Oc3cc(F)cc(F)c3)nc2)nn1 [Example 17]	> 90%	
Fc1cc(F)cc(Oc2ncc(-c3cccnc3)cn2)c1 [Example 18]	> 90%	
COc1ccc(-c2cnc(Oc3cc(F)cc(F)c3)nc2)nn1 [Example 19]	> 90%	
Nc1ccc(-c2cnc(Oc3ccc(F)cc3)nc2)nn1 [Example 20]	> 90%	
Cc1ccc(-c2cnc(Oc3cccc(F)c3)nc2)nn1 [Example 21]	> 90%	
COc1cc(-c2cnc(Oc3ccccc3)nc2)ccn1 [Example 23]	> 90%	
Cc1ccc(-c2cnc(Oc3ccccc3F)nc2)nn1 [Example 25]	> 90%	
Cc1cccc(Oc2ncc(-c3ccc(C)nc3)cn2)c1 [Example 28]	> 90%	
COc1ccc(-c2cnc(Oc3cccc(C)c3)nc2)cn1 [Example 29]	> 90%	
Fc1cccc(Oc2ncc(-c3ccnnc3)cn2)c1 [Example 32]	> 90%	
Cc1cccc(Oc2ncc(-c3cccnc3)cn2)c1 [Example 35]	> 90%	
FC(F)c1ccc(-c2cnc(Oc3ccccc3)nc2)cn1 [Example 37]	> 90%	

SMILES	inhibition in vivo at 30 mg/kg [2]	also measured
Nc1ccc(-c2cnc(Oc3c(F)cccc3F)nc2)nn1 [Example 39]	> 90%	
Nc1ccc(-c2cnc(Oc3cc(F)cc(F)c3)nc2)nn1 [Example 41]	> 90%	
Nc1ccc(-c2cnc(Oc3cccc(F)c3)nc2)cn1 [Example 43]	> 90%	
Nc1ccc(-c2cnc(Oc3ccc(F)cc3)nc2)cn1 [Example 44]	> 90%	
Nc1ccc(-c2cnc(Oc3ccccc3F)nc2)cn1 [Example 45]		inhibition in vivo at 5 mg/kg [1]: > 90%
Fc1cccc(Oc2ncc(-c3ccc(C(F)(F)F)nn3)cn2)c1 [Example 46]	> 90%	
Cc1ncccc1-c1cnc(Oc2cccc(F)c2)nc1 [Example 47]	> 90%	
Nc1ccc(-c2cnc(Oc3cccc(OC(F)(F)F)c3)nc2)cn1 [Example 48]	> 90%	
Cc1ncccc1-c1cnc(Oc2ccc(F)cc2)nc1 [Example 49]	> 90%	
Clc1ccc(-c2cnc(Oc3ccccc3)nc2)cn1 [Example 51]	> 90%	
Nc1ccc(-c2cnc(Oc3c(F)cccc3F)nc2)cn1 [Example 52]	> 90%	
Nc1ccc(-c2cnc(Oc3cc(F)cc(F)c3)nc2)cn1 [Example 53]	> 90%	
Cc1ncccc1-c1cnc(Oc2c(F)cccc2F)nc1 [Example 54]	> 90%	
Cc1ncccc1-c1cnc(Oc2cc(F)cc(F)c2)nc1 [Example 56]		inhibition in vivo at 30 mg/kg (po, 1 h): > 90%
Fc1ccc(Oc2ncc(-c3ccc(C(F)(F)F)nn3)cn2)cc1 [Example 57]		inhibition in vivo at 30 mg/kg (po, 1 h): > 90%
[O-][n+]1cccc(-c2cnc(Oc3ccccc3F)nc2)c1 [Example 60, 3-(2-(2-Fluorophenoxy)Pyrimidin-5-Yl)Pyridine 1-Oxide]	> 90%	
[O-][n+]1cccc(-c2cnc(Oc3cccc(F)c3)nc2)c1 [Example 61]	> 90%	
[O-][n+]1cccc(-c2cnc(Oc3ccc(F)cc3)nc2)c1 [Example 62]	> 90%	
